The record followed here is PMC12856317, “A reversible feedback mechanism regulating mitochondrial heme synthesis” (The Journal of Biological Chemistry, 2025).

The assay has as its target T1, WT holoALAS2 (residues 54–587) (Homo sapiens, UniProt P22557).
T1 construct: His6-SUMO (N, cleaved yes); made in house; host or cells: Escherichia coli BL21-Codon Plus (DE3)-RIL
T1 sequence (P22557 54-587): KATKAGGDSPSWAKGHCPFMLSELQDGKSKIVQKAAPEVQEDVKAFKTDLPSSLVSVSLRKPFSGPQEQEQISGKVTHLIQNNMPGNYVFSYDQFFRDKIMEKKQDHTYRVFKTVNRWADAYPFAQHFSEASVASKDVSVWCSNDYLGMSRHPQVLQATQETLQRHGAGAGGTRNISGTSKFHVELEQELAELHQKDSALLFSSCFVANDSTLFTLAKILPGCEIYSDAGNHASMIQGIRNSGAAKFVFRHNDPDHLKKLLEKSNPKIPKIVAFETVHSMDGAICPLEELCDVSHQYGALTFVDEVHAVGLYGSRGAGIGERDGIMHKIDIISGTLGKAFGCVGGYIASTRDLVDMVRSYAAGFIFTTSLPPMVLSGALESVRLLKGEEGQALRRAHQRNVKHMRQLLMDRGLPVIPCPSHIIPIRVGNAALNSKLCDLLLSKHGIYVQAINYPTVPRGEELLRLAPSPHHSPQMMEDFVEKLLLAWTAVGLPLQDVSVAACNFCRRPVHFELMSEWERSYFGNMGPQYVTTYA
Description: Succinyl-CoA:hemin competition analysis. It is filed as biochemical. To be noted: succinyl-CoA varied; for Km: 95% confidence interval in brackets. The method, then: A discontinuous colorimetric activity assay adapted from Shoolingin-Jordan et al. and Bailey et al. was used to measure the enzyme activity ([48], [74]). The reaction was initiated by adding 100 nM purified enzyme to 50 mM potassium phosphate, pH 7.0, 10 mM MgCl2, 1 mM DTT, 100 mM glycine, and 300 μM succinyl-CoA (175 μl total). The reaction was incubated at 37 °C for 15 min and terminated with 100 μl of cold 10% trichloroacetic acid. The precipitated protein was removed by centrifugation for 5 min at 13,000g, and 240 μl of the supernatant was mixed with 240 μl of 1 M sodium acetate, pH 4.6. To derivatize ALA, 20 μl of acetylacetone was added to the mixture and boiled at 100 °C for 10 min. After the sample was cooled for 20 min, 100 μl aliquots were transferred into a clear 96-well plate in triplicate. An equal volume of Ehrlich’s reagent (p-Dimethylaminobenzaldehyde, DMAB) was added to each well, and the absorbance was monitored at 553 nm using a microplate reader (Thermo Fisher Scientific). The peak absorbance value was converted to molar ALA concentration using ε553 = 60,400 M^−1 cm^−1.
For inhibitor competition experiments, the apoenzymes were preincubated with hemin or PLP (0–100 μM) for 15 min at 25 °C in the dark before initiating the reaction. Next, either PLP or hemin (0–100 μM) was titrated into the reactions to measure enzyme activation after hemin inhibition or enzyme inhibition of the PLP-treated apoenzyme, respectively. For succinyl-CoA:hemin competition analyses, the WT holoenzyme was mixed with hemin (0, 25, 50, and 100 μM), followed by the addition of increasing succinyl-CoA concentrations (0, 25, 50, 100, 250, and 500 μM). All experiments were performed with a minimum of three biological replicates, each with three technical replicates. Data were fit using nonlinear regression to generate an agonist dose-response curve (EC50) or an inhibitor dose-response curve (IC50). Lineweaver-Burk analysis was performed using the resulting kinetic parameters (Vmax and KM) in GraphPad Prism 10.

succinyl-CoA: the Vmax was 337.15 [445.63, 271.22] nmol/min/mg (hemin 0 μM); 109.04 [132.82, 92.51] nmol/min/mg (hemin 25 μM); 45.98 [63.13, 36.15] nmol/min/mg (hemin 50 μM); 37.50 [60.98, 27.07] nmol/min/mg (hemin 100 μM). Moreover, the Km (hemin 0 μM) was 178 µM, the Km (hemin 25 μM) worked out at 54.8 µM, the Km (hemin 50 μM) amounted to 46.2 µM and the Km (hemin 100 μM) is 39.2 µM.
